Results taken from ChEMBL document CHEMBL4265899, “Trisubstituted thiazoles as potent and selective inhibitors of Plasmodium falciparum protein kinase G (PfPKG)” (Bioorg Med Chem Lett, 2018).

How the values were obtained:
[1] = biological target: cGMP-dependent protein kinase (Plasmodium falciparum, UniProt W7JX98); assay: Inhibition of Plasmodium falciparum protein kinase G
[2] = system: Plasmodium falciparum; assay: Antimalarial activity against Plasmodium falciparum after 48 hrs by microbeta scintillation counting-based [3H]-hypoxanthine incorporation assay; format: functional, organism-based
[3] = biological target: T1, Serine/threonine-protein kinase D1 (Homo sapiens) (UniProt Q15139); assay: Inhibition of human PKD1 at 100 nM
T1 sequence (whole entry): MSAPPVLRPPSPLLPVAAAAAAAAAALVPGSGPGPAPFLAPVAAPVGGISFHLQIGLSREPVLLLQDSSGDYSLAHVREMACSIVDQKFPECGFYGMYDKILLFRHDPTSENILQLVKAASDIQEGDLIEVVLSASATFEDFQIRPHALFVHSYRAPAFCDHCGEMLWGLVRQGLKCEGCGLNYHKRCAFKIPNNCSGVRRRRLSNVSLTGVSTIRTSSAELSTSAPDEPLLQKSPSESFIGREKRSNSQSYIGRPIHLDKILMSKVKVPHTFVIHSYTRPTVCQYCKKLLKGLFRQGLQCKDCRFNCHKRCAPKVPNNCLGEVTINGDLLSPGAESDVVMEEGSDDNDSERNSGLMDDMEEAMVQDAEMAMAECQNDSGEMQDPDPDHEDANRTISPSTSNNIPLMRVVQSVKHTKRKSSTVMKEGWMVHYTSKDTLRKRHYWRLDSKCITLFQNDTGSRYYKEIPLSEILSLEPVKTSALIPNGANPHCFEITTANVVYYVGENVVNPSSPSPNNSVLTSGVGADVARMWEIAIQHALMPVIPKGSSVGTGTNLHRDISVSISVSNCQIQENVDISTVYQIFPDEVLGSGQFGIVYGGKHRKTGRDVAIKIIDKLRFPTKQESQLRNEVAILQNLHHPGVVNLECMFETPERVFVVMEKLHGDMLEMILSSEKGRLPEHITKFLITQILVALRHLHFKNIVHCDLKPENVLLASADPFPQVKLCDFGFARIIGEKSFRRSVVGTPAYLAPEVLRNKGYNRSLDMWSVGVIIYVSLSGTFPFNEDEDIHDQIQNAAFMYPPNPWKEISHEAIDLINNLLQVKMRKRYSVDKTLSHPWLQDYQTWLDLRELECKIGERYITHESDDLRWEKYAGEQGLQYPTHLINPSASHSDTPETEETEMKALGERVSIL

[4] = biological target: Casein kinase I isoform alpha (Homo sapiens) (UniProt P48729); assay: Inhibition of human CK1 at 100 nM
[5] = biological target: Tyrosine-protein kinase Lck (Homo sapiens) (UniProt P06239); assay: Inhibition of human LCK at 100 nM
[6] = biological target: Tyrosine-protein kinase Yes (Homo sapiens) (UniProt P07947); assay: Inhibition of human YES1 at 100 nM
[7] = biological target: Misshapen-like kinase 1 (Homo sapiens) (UniProt Q8N4C8); assay: Inhibition of human MINK1 at 100 nM
[8] = biological target: Receptor tyrosine-protein kinase erbB-4 (Homo sapiens) (UniProt Q15303); assay: Inhibition of human HER4 at 100 nM
[9] = organism: Homo sapiens; settings: at 100 nM
Description: Inhibition of human PKA at 100 nM

[10] = biological target: T2, Inhibitor of nuclear factor kappa-B kinase subunit beta (Homo sapiens) (UniProt O14920); settings: at 100 nM
T2 sequence (whole entry): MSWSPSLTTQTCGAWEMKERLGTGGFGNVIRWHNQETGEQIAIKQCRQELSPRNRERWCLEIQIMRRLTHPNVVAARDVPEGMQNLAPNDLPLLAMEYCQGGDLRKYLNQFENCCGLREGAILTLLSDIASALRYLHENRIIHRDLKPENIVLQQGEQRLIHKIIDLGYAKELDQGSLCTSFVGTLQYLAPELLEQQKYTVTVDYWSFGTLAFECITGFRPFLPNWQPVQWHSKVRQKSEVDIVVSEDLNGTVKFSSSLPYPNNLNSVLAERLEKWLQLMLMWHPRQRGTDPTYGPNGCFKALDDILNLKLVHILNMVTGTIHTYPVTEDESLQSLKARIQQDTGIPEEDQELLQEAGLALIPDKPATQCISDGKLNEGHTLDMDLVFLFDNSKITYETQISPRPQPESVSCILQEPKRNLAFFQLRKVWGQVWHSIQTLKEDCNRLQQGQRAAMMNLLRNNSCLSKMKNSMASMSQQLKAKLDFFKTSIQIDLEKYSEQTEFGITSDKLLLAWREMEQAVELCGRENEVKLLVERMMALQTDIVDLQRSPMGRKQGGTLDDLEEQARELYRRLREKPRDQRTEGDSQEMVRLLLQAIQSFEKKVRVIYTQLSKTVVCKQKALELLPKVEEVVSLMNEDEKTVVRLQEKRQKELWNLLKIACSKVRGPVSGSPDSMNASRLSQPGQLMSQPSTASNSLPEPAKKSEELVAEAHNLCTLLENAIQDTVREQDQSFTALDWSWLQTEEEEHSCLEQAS
Description: Inhibition of human IKKb at 100 nM

[11] = biological target: T3, Inhibitor of nuclear factor kappa-B kinase subunit epsilon (Homo sapiens) (UniProt Q14164); settings: at 100 nM
T3 sequence (whole entry): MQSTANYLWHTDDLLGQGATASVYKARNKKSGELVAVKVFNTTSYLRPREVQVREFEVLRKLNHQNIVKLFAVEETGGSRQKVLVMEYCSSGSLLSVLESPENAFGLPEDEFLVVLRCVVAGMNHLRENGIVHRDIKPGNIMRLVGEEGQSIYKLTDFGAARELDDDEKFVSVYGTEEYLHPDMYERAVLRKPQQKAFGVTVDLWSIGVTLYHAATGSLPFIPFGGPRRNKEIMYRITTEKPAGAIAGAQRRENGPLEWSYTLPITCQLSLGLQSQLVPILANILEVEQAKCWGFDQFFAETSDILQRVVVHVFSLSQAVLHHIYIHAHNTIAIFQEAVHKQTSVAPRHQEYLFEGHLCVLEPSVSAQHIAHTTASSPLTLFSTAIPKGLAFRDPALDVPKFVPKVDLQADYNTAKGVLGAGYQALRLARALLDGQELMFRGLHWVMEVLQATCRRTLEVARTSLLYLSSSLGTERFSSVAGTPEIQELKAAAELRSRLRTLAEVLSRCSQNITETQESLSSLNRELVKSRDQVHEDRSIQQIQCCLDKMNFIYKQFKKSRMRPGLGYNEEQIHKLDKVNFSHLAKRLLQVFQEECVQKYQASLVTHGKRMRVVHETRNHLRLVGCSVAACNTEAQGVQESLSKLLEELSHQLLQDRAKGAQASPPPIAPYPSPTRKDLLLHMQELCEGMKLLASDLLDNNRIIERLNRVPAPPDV
Description: Inhibition of human IKKepsilon at 100 nM

cGMP-dependent protein kinase, sequence (W7JX98 whole entry): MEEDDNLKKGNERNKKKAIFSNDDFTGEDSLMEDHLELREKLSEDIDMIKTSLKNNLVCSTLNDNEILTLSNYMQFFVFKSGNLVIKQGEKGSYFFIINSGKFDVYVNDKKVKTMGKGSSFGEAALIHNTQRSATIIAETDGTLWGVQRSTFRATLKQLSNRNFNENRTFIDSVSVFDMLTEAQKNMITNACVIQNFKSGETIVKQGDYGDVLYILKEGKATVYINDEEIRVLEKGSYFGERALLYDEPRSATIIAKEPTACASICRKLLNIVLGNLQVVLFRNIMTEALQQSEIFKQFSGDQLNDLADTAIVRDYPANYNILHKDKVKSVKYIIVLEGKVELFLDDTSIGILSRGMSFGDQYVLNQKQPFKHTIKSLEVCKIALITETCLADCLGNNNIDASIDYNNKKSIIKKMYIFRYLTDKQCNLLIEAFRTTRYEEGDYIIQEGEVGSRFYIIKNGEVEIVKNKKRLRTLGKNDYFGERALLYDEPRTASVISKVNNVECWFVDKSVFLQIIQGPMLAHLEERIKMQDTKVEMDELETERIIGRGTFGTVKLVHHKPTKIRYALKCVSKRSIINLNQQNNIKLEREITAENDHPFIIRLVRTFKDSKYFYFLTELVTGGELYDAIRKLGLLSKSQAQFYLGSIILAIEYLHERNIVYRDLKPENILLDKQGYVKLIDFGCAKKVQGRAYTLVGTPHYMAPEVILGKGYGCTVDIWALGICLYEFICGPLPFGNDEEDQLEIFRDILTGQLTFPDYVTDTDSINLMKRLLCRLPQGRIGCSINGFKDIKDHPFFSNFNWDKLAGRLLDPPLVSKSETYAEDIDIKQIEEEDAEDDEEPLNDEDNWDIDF
Tyrosine-protein kinase Yes (Homo sapiens), sequence (P07947 2-543 limits assumed): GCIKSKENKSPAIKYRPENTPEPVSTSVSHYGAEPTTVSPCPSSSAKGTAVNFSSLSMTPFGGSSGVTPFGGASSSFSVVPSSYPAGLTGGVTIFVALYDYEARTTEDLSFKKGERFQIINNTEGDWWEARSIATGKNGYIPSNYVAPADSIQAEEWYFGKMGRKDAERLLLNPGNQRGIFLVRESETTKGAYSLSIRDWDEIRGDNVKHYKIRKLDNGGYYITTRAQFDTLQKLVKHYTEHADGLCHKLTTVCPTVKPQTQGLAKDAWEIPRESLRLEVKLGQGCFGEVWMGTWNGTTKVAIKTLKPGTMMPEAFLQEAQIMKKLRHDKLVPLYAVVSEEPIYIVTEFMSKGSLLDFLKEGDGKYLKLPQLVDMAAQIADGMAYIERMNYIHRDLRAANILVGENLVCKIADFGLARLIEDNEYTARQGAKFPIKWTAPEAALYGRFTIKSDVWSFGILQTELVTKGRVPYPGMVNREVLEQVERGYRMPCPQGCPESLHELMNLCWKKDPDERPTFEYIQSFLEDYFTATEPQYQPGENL
Receptor tyrosine-protein kinase erbB-4 (Homo sapiens), sequence (Q15303 whole entry): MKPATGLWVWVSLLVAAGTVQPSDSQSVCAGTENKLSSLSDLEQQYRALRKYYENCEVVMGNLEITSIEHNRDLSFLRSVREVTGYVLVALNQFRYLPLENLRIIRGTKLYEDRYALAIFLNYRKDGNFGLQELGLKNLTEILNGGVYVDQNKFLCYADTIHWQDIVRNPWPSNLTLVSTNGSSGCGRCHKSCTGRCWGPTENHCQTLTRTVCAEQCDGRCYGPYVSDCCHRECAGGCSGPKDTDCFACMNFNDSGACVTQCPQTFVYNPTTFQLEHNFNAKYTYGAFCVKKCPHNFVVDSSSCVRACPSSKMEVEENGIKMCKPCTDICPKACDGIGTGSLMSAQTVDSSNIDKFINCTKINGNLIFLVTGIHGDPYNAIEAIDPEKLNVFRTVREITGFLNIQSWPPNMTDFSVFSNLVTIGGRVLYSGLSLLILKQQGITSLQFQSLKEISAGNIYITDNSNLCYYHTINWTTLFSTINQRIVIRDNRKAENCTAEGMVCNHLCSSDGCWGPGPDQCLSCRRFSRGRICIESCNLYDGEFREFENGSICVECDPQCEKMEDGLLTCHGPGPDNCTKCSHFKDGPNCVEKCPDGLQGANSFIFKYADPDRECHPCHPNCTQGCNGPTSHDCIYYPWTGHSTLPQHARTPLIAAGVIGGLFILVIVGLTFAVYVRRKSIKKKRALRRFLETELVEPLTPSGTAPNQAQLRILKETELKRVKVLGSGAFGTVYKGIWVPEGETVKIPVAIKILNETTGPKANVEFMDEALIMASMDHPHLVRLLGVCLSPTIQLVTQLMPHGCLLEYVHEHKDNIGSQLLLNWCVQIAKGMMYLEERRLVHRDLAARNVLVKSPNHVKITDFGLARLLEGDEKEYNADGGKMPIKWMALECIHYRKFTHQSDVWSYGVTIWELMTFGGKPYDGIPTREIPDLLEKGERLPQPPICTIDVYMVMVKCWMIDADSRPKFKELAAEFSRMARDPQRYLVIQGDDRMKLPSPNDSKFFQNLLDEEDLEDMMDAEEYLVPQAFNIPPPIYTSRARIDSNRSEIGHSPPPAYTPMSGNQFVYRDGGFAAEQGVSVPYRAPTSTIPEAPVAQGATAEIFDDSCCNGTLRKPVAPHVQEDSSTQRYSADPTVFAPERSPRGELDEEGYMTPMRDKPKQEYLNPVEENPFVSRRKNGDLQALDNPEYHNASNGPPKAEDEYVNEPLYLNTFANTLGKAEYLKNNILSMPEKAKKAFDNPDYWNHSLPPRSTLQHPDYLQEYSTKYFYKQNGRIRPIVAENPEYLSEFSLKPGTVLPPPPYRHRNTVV
Misshapen-like kinase 1 (Homo sapiens), sequence (Q8N4C8 whole entry, looked up): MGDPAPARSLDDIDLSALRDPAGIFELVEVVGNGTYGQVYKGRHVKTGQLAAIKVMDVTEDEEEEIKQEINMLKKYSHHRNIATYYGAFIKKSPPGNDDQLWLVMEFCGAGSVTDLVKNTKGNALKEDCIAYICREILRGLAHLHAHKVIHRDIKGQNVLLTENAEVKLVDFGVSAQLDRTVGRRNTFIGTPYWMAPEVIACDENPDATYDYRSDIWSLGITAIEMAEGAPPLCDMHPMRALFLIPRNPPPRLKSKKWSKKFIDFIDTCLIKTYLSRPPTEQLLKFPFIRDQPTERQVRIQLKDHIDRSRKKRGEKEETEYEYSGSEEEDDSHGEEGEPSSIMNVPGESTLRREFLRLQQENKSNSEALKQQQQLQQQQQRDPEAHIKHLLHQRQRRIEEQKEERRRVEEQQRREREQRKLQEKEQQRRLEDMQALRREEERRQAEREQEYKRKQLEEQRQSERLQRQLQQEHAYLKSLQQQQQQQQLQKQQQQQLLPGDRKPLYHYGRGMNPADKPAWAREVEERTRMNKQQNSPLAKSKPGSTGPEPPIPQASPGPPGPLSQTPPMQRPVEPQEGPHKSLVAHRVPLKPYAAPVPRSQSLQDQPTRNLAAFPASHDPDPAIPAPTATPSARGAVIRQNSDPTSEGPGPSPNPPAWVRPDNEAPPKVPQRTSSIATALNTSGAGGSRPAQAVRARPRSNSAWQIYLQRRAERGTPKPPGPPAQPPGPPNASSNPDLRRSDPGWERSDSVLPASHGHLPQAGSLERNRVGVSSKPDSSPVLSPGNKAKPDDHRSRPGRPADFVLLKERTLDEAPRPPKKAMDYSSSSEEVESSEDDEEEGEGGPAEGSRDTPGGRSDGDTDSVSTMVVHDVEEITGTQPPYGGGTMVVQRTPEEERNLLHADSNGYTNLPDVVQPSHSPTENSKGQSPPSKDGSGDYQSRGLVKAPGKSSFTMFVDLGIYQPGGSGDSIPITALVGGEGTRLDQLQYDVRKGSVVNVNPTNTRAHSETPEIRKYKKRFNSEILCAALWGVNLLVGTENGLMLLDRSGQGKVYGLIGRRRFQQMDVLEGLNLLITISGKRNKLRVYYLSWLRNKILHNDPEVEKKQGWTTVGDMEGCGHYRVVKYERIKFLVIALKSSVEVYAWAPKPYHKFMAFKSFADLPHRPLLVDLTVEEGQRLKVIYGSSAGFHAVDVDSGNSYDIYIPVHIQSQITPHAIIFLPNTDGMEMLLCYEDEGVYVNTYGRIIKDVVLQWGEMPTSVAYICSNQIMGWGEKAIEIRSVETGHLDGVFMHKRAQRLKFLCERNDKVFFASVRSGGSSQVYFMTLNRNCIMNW
Tyrosine-protein kinase Lck (Homo sapiens), sequence (P06239 2-509 limits assumed): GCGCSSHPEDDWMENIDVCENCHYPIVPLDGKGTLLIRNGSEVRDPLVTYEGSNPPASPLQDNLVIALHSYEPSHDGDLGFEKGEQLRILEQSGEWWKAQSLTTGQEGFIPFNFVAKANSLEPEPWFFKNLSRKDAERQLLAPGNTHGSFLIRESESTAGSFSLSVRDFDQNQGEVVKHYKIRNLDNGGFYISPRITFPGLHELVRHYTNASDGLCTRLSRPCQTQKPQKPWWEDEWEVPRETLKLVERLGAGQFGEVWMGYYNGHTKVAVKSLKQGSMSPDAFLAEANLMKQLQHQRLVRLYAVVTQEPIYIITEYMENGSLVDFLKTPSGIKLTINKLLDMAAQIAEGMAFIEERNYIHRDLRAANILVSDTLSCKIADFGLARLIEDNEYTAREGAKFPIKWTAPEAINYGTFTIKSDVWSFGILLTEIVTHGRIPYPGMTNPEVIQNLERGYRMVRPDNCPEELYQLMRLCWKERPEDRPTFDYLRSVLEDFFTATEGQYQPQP
Casein kinase I isoform alpha (Homo sapiens), sequence (P48729 2-337 limits assumed): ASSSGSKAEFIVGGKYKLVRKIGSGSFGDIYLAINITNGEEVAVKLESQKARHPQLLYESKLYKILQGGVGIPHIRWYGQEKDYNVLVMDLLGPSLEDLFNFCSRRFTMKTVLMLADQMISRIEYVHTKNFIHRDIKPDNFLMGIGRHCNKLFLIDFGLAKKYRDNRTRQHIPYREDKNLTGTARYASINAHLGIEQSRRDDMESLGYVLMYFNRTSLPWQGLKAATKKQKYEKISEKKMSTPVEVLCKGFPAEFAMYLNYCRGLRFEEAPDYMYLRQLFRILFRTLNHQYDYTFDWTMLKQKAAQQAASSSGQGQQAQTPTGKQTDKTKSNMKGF

| Compound | IC50 [1] [µM] | EC50 [2] [µM] | other results |
| --- | --- | --- | --- |
| CN1CCC(c2nc(-c3cccc(S(C)(=O)=O)c3)c(-c3ccnc(NC4CCOCC4)n3)s2)CC1 | 0.009 | 1.56 | – |
| CN1CCC(c2nc(-c3ccc(F)cc3)c(-c3ccnc(Nc4ccc(C5CCNCC5)cc4)n3)s2)CC1 | 0.0003 | 0.025 | – |
| CNc1nccc(-c2sc(C3CCN(C)CC3)nc2-c2ccc(F)cc2)n1 | 0.015 | 1.49 | – |
| CN1CCC(c2nc(-c3cccc(S(C)(=O)=O)c3)c(-c3ccnc(N)n3)s2)CC1 | 0.033 | 4.57 | – |
| CN1CCC(c2nc(-c3cccc(S(C)(=O)=O)c3)c(-c3ccnc(NC4CC4)n3)s2)CC1 | 0.017 | – | – |
| CN1CCC(c2nc(-c3ccc(F)cc3)c(-c3ccnc(Nc4ccc(N5CCNCC5)cc4)n3)s2)CC1 | – | – | inhibition [3]: > 90%; inhibition [4]: > 90%; inhibition [5]: > 90%; inhibition [6]: > 90%; inhibition [7]: > 90%; inhibition [8]: > 90%; inhibition [9]: < 70%; inhibition [10]: < 70%; inhibition [11]: < 70% |
| CN(C)Cc1ccn2c(-c3ccnc(N)n3)c(-c3ccc(F)cc3)nc2c1 | 0.003 | 0.4 | – |
| CN1CCC(c2nc(-c3ccc(F)cc3)c(-c3ccnc(Nc4ccc(N5CCN(C)CC5)cc4)n3)s2)CC1 | 0.001 | 0.155 | – |
| CN1CCC(c2nc(-c3ccc(F)cc3)c(-c3ccnc(N)n3)s2)CC1 | 0.017 | 1.81 | – |
| Cc1nc(C2CCN(C)CC2)sc1-c1ccnc(Nc2ccc(N3CCNCC3)cc2)n1 | 0.149 | – | – |
| Fc1ccc(-c2nc(C3CCNCC3)sc2-c2ccnc(Nc3ccc(N4CCNCC4)cc3)n2)cc1 | 0.0005 | 0.073 | – |
| CN1CCC(c2nc(-c3ccc(F)cc3)c(-c3ccncn3)s2)C1 (stereo not given) | 0.006 | 0.144 | – |
| CN1CCC(c2nc(-c3cccc(S(C)(=O)=O)c3)c(-c3ccnc(NCC4CC4)n3)s2)CC1 | 0.006 | 1.33 | – |
| CN1CCC(c2nc(C3CC3)c(-c3ccnc(Nc4ccc(N5CCNCC5)cc4)n3)s2)CC1 | 0.047 | 0.09 | – |
| CN1CCC(c2cc(-c3ccncc3)c(-c3ccc(F)cc3)[nH]2)CC1 | 0.006 | 0.45 | – |
